These results are taken from paper PMC10714399, “Open Source Antibiotics: Simple Diarylimidazoles Are Potent against Methicillin-Resistant Staphylococcus aureus” (ACS Infectious Diseases, 2023).

≈ marks a conversion by molar mass, not a printed value.

A short description of series [1]: HEK293 toxicity, 96-well dose-response (UCL; MTT or resazurin, with or without recovery). Particulars: human, HEK293 cells; read-out: HEK293 CC50. The series is classed as cell-based, human. In a few lines: (§1)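 HEK293 cells seeded 48 h beforehand (700 cells for recovery runs, 5000 for non-recovery), then exposed 24 h to 2-fold dilutions from 32 μg/mL down to […] (1% DMSO top). Viability read by MTT or resazurin, either immediately or after 72 h recovery; Dmax = 100 − viability% at 32 μg/mL.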
(In general: Alamar Blue is a resazurin reagent that responds to reducing activity.)

A further series relates to HEK293 cells. Described as above. The series is classed as cell-based, human. The note with it: 32 μg/mL. In a few lines:
as §1

Broadly, the CC50 is the concentration that lowers cell viability or growth by half.

For `c1ccc(-c2nc3n(c2-c2ccc4sccc4c2)CCC3)nc1` [OSA_000822], the CC50 at 24 h in series [1] worked out at 2.9 µg/mL (≈ 9.14 µM). `c1ccc(-c2nc3n(c2-c2ccc4occc4c2)CCC3)nc1` [compound 821]: the CC50 at 24 h in series [1] was 1.7 µg/mL (≈ 5.64 µM). Besides, in the series with HEK293 cells, the “spread of Dmax values comparing recovery and non-recovery conditions” value is “small difference”. Take `c1ccc(-c2nc3n(c2-c2ccc4sccc4c2)CCC3)nc1` [compound 822]: in the series on HEK293 cells, the “spread of Dmax values comparing recovery and non-recovery conditions” value was “small difference”.
